Data reported in patent US7022697B2, “4-(Oxadiazol-3-yl)-1,4-diazabicyclo[3.2.2]-nonane derivatives, preparation and therapeutic use thereof” (Sanofi-aventis, priority 2001, dated 2006).
Counter-ions that a name gives are not always drawn.

SMILES	melting point [°C]
c1ccc2sc(-c3nc(N4CCN5CCC4CC5)no3)cc2c1 (as salt: HBr)	258 to 260
C1CNC(c2nc(N3CCN4CCC3CC4)no2)CN1 (stereo not drawn) (as salt: HBr)	247 to 248
c1ccc2c(-c3nc(N4CCN5CCC4CC5)no3)cccc2c1 (as salt: HBr)	256 to 258
c1cncc(-c2nc(N3CCN4CCC3CC4)no2)c1 (as salt: HBr)	260 to 264

Other lines, results leading:

melting point [°C]	SMILES
249 to 251	c1coc(-c2nc(N3CCN4CCC3CC4)no2)c1 (as salt: HBr)
269 to 272	c1cc(-c2nc(N3CCN4CCC3CC4)no2)ccn1 (as salt: HBr)
